Data as given in patent publication US8937184B2, “1H-imidazole derivatives as cannabinoid CB2 receptor modulators” (Abbvie B.V., priority 2005, dated 2015).
pKi: −log10 of the molar value. Where two headings read alike, the source gives them in different places.

Tests used:
[1] = target: T1, human cannabinoid CB2 receptor (Homo sapiens, UniProt P34972); test: In vitro affinity for cannabinoid-CB2 receptors ([3H]CP-55,940 radioligand binding, CHO cell membranes); conditions: for Ki: read-out: Human cannabinoid-CB2 receptor In vitro affinity - pKi value (converted)
T1 construct: expressed in transfected cells; host or cells: Chinese hamster ovary (CHO) cells, membrane preparation
T1 sequence (P34972 whole entry): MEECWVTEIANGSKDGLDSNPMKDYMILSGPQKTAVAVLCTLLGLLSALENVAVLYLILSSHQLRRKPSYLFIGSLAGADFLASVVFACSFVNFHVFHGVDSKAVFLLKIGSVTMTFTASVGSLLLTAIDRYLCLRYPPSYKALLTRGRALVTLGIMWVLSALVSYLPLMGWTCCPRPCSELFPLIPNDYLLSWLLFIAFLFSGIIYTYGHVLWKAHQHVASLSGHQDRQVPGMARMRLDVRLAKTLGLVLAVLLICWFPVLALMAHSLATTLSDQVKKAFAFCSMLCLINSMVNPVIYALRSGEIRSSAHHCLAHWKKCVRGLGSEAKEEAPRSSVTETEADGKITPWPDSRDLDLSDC
Description: (§1) The affinity of the compounds of the invention for cannabinoid CB2 receptors can be determined using membrane preparations of Chinese hamster ovary (CHO) cells in which the human cannabinoid CB2 receptor is stably transfected in conjunction with [^3H]CP-55,940 as radioligand. After incubation of a freshly prepared cell membrane preparation with the [^3H]-ligand, with or without addition of compounds of the invention, separation of bound and free ligand is performed by filtration over glassfiber filters. Radioactivity on the filter is measured by liquid scintillation counting.
The affinity of the compounds of the invention for cannabinoid CB2 receptors was determined as described above. From the binding affinity measured for a given compound of formula (I), one can estimate a theoretical lowest effective dose. At a concentration of the compound equal to twice the measured Ki-value, […] of the cannabinoid CB2 receptors likely will be occupied by the compound. Converting that concentration to mg of compound per kg of patient yields a theoretical lowest effective dose, assuming ideal bioavailability. Pharmacokinetic, pharmacodynamic, and other considerations may alter the dose actually administered to a higher or lower value. The dosage expediently administered is 0.001-1000 mg/kg, such as 0.1-100 mg/kg of patient's bodyweight.

[2] = target: T2, human cannabinoid CB1 receptor (Homo sapiens, UniProt P21554); test: In vitro affinity for cannabinoid-CB1 receptors ([3H]CP-55,940 radioligand binding, CHO cell membranes)
T2 construct: expressed in transfected cells; host or cells: Chinese hamster ovary (CHO) cells, membrane preparation
T2 sequence (P21554 whole entry): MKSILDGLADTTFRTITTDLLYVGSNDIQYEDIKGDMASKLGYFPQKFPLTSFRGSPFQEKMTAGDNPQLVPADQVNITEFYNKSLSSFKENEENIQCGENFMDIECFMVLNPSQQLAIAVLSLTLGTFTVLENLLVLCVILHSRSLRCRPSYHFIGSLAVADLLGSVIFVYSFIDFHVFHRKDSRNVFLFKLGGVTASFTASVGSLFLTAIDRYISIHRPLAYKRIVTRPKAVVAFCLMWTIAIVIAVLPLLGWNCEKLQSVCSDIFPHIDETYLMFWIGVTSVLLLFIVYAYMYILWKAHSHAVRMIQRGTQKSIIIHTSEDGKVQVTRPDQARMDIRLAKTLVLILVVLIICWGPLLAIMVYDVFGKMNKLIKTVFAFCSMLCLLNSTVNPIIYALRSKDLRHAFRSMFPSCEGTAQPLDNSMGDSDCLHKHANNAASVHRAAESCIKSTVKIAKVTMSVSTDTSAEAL
Description: as §1, with “CB1” for “CB2”

[3] = membranes of CHO cells stably transfected with human CB2 receptor, [3H]CP-55,940 radioligand

With Cc1nc(C(=O)NC2CCCCCCC2)c(C)n1-c1ccccc1 [Compound 72] the pKi [1] was 8.30.
COC(=O)[C@H](Cc1ccccc1)NC(=O)c1cn(CCOc2ccccc2)cn1 [BMS-I, reference compound] gave a pKi [1] of 6.40.
Cc1nc(C(=O)NN2CCCCC2)c(C)n1-c1ccccc1 gave a melting point of 117 to 118 °C.
O=C(NC12CC3CC(CC(C3)C1)C2)c1cn(-c2ccccc2)cn1 [Compound 6] gave a melting point of 198 to 200 °C.
Cc1nc(C(=O)NC23CC4CC(CC(C4)C2)C3)cn1-c1ccccc1 [Compound 8, N-adamantyl-2-methyl-1-phenyl-1H-imidazole-4-carboxamide] showed a melting point of 207 to 210 °C.
With Cc1c(C(=O)NCC2CCC3C(C)(C)C34CC24)ncn1CCCNS(C)(=O)=O (stereo not drawn) [Compound 22] the melting point was 84 to 108 °C.
In the case of COC(=O)[C@H](Cc1ccccc1)NC(=O)c1cn(CCN2CCOCC2)cn1 [BMS-II, reference compound], the pKi [1] was under 6.00.
Compound Cc1nc(C(=O)NC23CC4CC(CC(O)(C4)C2)C3)c(C)n1-c1ccccc1 [Compound 48, N-(3 hydroxyadamant-1-yl)-2,5-dimethyl-1-phenyl-1H-imidazole-4-carboxamide] has a melting point of 215 to 220 °C.
In the case of Cc1nc(C(=O)NC23CC4CC(CC(C4)C2)C3)c(Br)n1-c1ccccc1 [Compound 33A], the pKi [1] was 8.20 and the Ki ([2]; membranes of CHO cells stably transfected with human CB1 receptor, [3H]CP-55,940 radioligand, read-out: Human cannabinoid-CB1 receptor In vitro affinity - pKi (converted)) was 794 nM.
Work on Cc1nc(C(=O)Nc2cccc3ncccc23)c(C)n1-c1ccccc1 [Compound 46] yielded a melting point of 139 to 141 °C.
With Cc1nc(C(=O)Nc2cccc(Cl)c2Cl)c(C)n1-c1ccccc1 [Compound 65, N-(2,3-dichlorophenyl)-2,5-dimethyl-1-phenyl-1H-imidazole-4-carboxamide] the melting point was 127 to 129 °C.
In the case of O=C(NC12CC3CC(CC(C3)C1)C2)c1nc(Cl)n(-c2ccccc2)c1Cl, the melting point was 172 to 173 °C.
Work on Cc1nc(C(=O)Nc2cccc3ccccc23)c(C)n1-c1ccccc1.Cl yielded a melting point of 177 to 179 °C.
In the case of Cc1nc(C(=O)Nc2ccnc3cc(C(F)(F)F)ccc23)c(C)n1-c1ccccc1, the melting point was 198.5 °C.
Compound CCCCCCC(=O)c1nc(C)n(-c2ccccc2)c1C [Compound 26] has a Ki [1, 3] of 158 nM.
O=C(NC1C2CC3CC(C2)CC1C3)c1cn(-c2ccccc2)cn1 (stereo not drawn) [Compound 7] gave a melting point of 232 to 234 °C.
CCc1c(C(=O)NC23CC4CC(CC(C4)C2)C3)nc(C)n1-c1ccccc1 [Compound 15] gave a pKi [1] of over 9.00 and a pKi [2] of 6.20.
With Cc1c(C(=O)NC23CC4CC(CC(C4)C2)C3)ncn1Cc1ccccc1 the melting point was 182 to 184 °C.
In the case of Cc1nc(C(=O)NCC2CCC3C(C)(C)C34CC24)cn1-c1ccccc1 (stereo not drawn) [Compound 9], the melting point was 124 to 127 °C.
Work on Cc1nc(C(=O)NC23CC4CC(CC(C4)C2)C3)c(Cl)n1-c1ccccc1 [Compound 33] yielded a pKi [1] of 8.10.
In the case of “N-[(1R,2S,5R)-rel-6,6-dimethylbicyclo[3.1.1]heptan-2-methyl]-5-methyl-1-phenyl-1H-imidazole-4-carboxamide [Compound 1]”, the “Human cannabinoid-CB2 receptor In vitro affinity - pKi value” [1, 3] was 7.3 and the “Human cannabinoid-CB1 receptor In vitro affinity - pKi” value ([2]; membranes of CHO cells stably transfected with human CB1 receptor, [3H]CP-55,940 radioligand) was under 6.0.
CCCCc1c(C(=O)NC23CC4CC(CC(C4)C2)C3)nc(C)n1-c1ccccc1 showed a melting point of 171 to 172 °C.
Cc1c(C(=O)Nc2cccc3ccccc23)ncn1-c1ccccc1 showed a melting point of 167 to 169 °C.
With CCCCCn1cnc(C(=O)N[C@@H](Cc2ccccc2)C(=O)OC)c1 [BMS-III, reference compound] the pKi [1] was 7.20.
Cc1c(C(=O)NC23CC4CC(CC(C4)C2)C3)ncn1-c1ccccc1 [Compound 2] showed a melting point of 214 to 219 °C.
Cc1nc(C(=O)NCc2ccccc2C(F)(F)F)c(C)n1-c1ccccc1 [Compound 44] showed a melting point of 76 to 79 °C and a Ki [1, 3] of 1.58 nM.
Work on Cc1nc(C(=O)NC23CC4CC(CC(C4)C2)C3)c(C)n1-c1ccc2c(c1)OCCO2.Cl yielded a melting point of 221 to 223 °C.
Work on Cc1nc(C(=O)N[C@@H]2C(C)(C)C3CC[C@@]2(C)C3)c(C)n1-c1ccccc1 yielded a melting point of 130 to 132 °C.
Cc1c(C(=O)NC23CC4CC(CC(C4)C2)C3)nc(C(F)(F)F)n1-c1ccccc1 [Compound 64] showed a melting point of 170 to 172 °C.
For Cc1nc(C(=O)NC23CC4CC(CC(C4)C2)C3)c(C)n1C1CCCCC1 [Compound 14], the pKi [1] was 8.20 and the pKi [2] was under 6.00.
In the case of Cc1c(C(=O)N[C@H]2C[C@H]3CC[C@]2(C)C3(C)C)ncn1-c1ccccc1 [Compound 4], the melting point was 209 to 212 °C.
CCc1nc(C(=O)NC23CC4CC(CC(C4)C2)C3)cn1-c1ccccc1 [Compound 20] gave a pKi [1] of 8.00 and a pKi [2] of 6.60.
Compound Cc1nc(C(=O)NC2C3CC4CC(C3)CC2C4)c(C)n1-c1ccccc1 (stereo not drawn) [Compound 49] has a melting point of 245 to 247 °C, a pKi [1] of 8.60 and a pKi [2] of under 6.00.
Compound COc1cccc(-n2c(C)nc(C(=O)NCC3CCC4C(C)(C)C45CC35)c2C)c1 (stereo not drawn) [Compound 12] has a melting point of 153 to 155 °C.
O=C(NC12CC3CC(CC(C3)C1)C2)c1ncn(-c2ccccc2)c1Br [Compound 27, N-(adamant-1-yl)-5-bromo-1-phenyl-1H-imidazole-4-carboxamide] gave a melting point of 229 to 232 °C.
With CCc1nc(C(=O)Nc2cccc3ccccc23)c(CC)n1-c1ccccc1 the melting point was 123 to 125 °C.
For Cc1c(C(=O)N[C@H]2C(C)(C)[C@H]3CC[C@]2(C)C3)ncn1CCCNS(C)(=O)=O, the melting point was 149 to 156 °C.
With O=C(NC12CC3CC(CC(C3)C1)C2)c1nc(Br)n(-c2ccccc2)c1Br the melting point was 228 to 231 °C.
For Cc1c(C(=O)N[C@H]2C(C)(C)[C@H]3CC[C@]2(C)C3)ncn1-c1ccccc1, the melting point was 149 to 152 °C.
Work on Cc1nc(C(=O)NC23CC4CC(CC2C4)C3)c(C)n1-c1ccccc1 yielded a melting point of 147 to 150 °C.
Work on Cc1nc(C(=O)NC23CC4CC(CC(C4)C2)C3)c(C)n1-c1ccccc1 [Compound 11] yielded a pKi [1] of 9.00 and a pKi [2] of under 6.00.
Compound Cc1nc(C(=O)Nc2ccc(C#N)c3ccccc23)c(C)n1-c1ccccc1 has a melting point of 241.5 °C.
